Legend:
[1] = Solubility (remark in the discussion); format: physicochemical
[2] = molecular target: T1, triosephosphate isomerase of G. lamblia (GlTIM) (Giardia intestinalis, UniProt P36186, C202A); test: Inactivation assay of recombinant GlTIM (C202A variant); format: biochemical; settings: for kinact/KI: pH 7.4, read-out: Second-order rate constant of inactivation; for Inactivation of GlTIM (in words): 2 hours at 37 °C
T1 construct: His-tag (N, cleaved yes); TEV protease recognition site (N); made in house; host or cells: Escherichia coli
T1 sequence (P36186 whole entry C202A): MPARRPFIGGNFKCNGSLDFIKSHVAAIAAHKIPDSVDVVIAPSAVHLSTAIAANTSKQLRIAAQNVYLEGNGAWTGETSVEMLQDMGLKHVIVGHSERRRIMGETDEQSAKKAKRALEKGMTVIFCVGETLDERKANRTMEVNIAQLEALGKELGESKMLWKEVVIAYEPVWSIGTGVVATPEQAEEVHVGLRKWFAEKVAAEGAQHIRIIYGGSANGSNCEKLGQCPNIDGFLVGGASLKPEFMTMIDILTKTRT
Method: We evaluated the effect of compounds incubating the enzyme with each one of them for 2 hours at 37 °C and the IC50 values were then calculated from the residual activity data.
GlTIM (200 µg/mL) was incubated with increasing concentrations of compounds. After 2 hours of incubation at 37 °C, the reactions were stopped by dilution and the remaining activity was determined as described in the material and methods section.
(§1) For all assays we used mutant GlTIM C202A in order to work with the dimeric form of enzyme; this mutant was referred in the paper as GlTIM and was prepared as described before. The recombinant GlTIM containing a His-tag in its NH-terminal together with a recognition region for tobacco […] virus protease, was expressed in Escherichia coli. The GlTIM purification was performed by using IMAC method; after His-tag was removed, the enzyme was stored at 4 °C in a buffer containing 100 mM triethanolamine, 10 mM EDTA, pH 7.4 (TE buffer). […] Mutant of GlTIM C222A and human TIM (HsTIM) were prepared as described before, [33]. Protein content of GlTIM and HsTIM was calculated by using a ε M ^−1cm^−1 of 26,600 and 32,595, respectively. For all assays, the enzymes were freshly prepared with no more of two weeks of storage.
TIM activity was determined in a Cary50 spectrophotometer (Varian) at 25 °C using coupling assay following the conversion of D-glyceraldehyde 3-phosphate to dihydroxyacetone phosphate as described before. The reaction mixture contained TE buffer (pH 7.4) supplemented with 0.2 mM NADH, 1 mM GAP, and 0.9 U of alpha-GDH. The reaction started by adding 5 ng/mL of TIM.
(§2) Omeprazole and compounds stock solutions were freshly prepared using 100% DMSO as solvent. […] The reaction was stopped by diluting the enzyme 40,000 times in TE buffer and then, the remaining activity was determined. The second-order rate constants of inactivation were calculated from obtaining the pseudo-first order rate constant (k 1) values at each fixed concentration of compounds by fitting them to an exponential decay. Then, the k 1 values were re-plotted against the employed concentrations of each compound; the second-order rate constant value of inactivation was obtained from the slope of these plots.

VERO cells = test: Cytotoxicity assay (MTT) in VERO cells; format: cell-based; settings: for CC50 mammal cells relative to IC50 for trophozoites: mammal cells: human fibroblasts and VERO cells together
Method: (§3) The cytotoxic effect of these compounds was also evaluated in mammal cell cultures and their CC50 values calculated and depicted in Table 2.
(§4) We used the cell lines VERO (ATCC:CCL-81) and gingival human fibroblasts (kindly provided by Dra. María Dolores Farfán from Facultad de Odontología, Universidad Nacional Autónoma de México). The assay procedure is described below. Cells were maintained in a DMEM medium supplemented with antibiotic-antimycotic (1X), L-glutamine (1X) and 10% fetal bovine serum. Cells were incubated in 25 mL plastic culture flasks (Nunc) at 37 °C and 5% CO2. After the cell cultures grew to confluence, we determined the cell viability by using Trypan Blue method; then, cells were seeded at 4 × 10^4 cells/well in 100 µL culture medium during 24 hours. […] DMSO was maintained constant at 0.2%; a control was performed by incubating cells with this solvent concentration but in absence of compounds. After incubation time, we measured the cell viability by using MTT (3-(4,5-Dimethyl-2-thiazolyl)-2,5-diphenyl-2H-tetrazolium bromide; Roche Diagnostics) method. Briefly, 10 µL MTT (5 mg/mL) was added to cell cultures and incubated at 37 °C during four hours; then, 100 µL of solution containing 10% SDS and 0.01N HCl was added. Thereafter, the formazan products were spectrophotometrically quantified at 570 nm (Labxystem Uniskan, Manchester). The CC50 (median cytotoxicity concentration) and CI95 (95% confidence interval) values from each experiment were determined from the concentration-percentage plots of cell viability obtained by logistic regression. Statistical analysis was performed using the SPPSS software (version 17.0).

[3] = Cytotoxicity assay (MTT) in VERO cells; format: cell-based; settings: African green monkey, VERO cells (ATCC CCL-81); 24 hours, MTT; 95% confidence limits in square brackets
Method: as §3, §4

[4] = Cytotoxicity assay (MTT) in human fibroblasts; format: cell-based; settings: human, gingival human fibroblasts, 95% confidence limits in square brackets
Method: as §3, §4

GlTIM = molecular target: T2, GlTIM (Giardia intestinalis, UniProt P36186, C202A); test: Quantification of free Cys of derivatized GlTIM (Ellman's reagent); format: biochemical, Giardia lamblia; settings: for Number of free Cys per monomer after treatment: GlTIM 6 mg/mL (214 µM), compound 1 mM, two hours at 37 °C; for Number of free Cys per monomer after treatment and then DTT: derivatized enzyme incubated with 5 mM DTT during 15 minutes
T2 construct: His-tag (N, cleaved yes); TEV protease recognition site (N); made in house; host or cells: Escherichia coli
T2 sequence (P36186 whole entry C202A): as above
Method: We evaluated the first option by determining the residual free Cys after derivatization with compounds and afterwards reducing agent treatment. Thus, 6 mg/mL (214 µM) of GlTIM was incubated with or without each one of compounds (1 mM) during two hours at 37 °C. It is important to remark that at the protein concentration used for this aim, a considerable quantity was precipitated. Therefore, the incubation of the samples was arrested by centrifuging and then filtration through a 3 mL Sephadex G-25 column, and the number of free Cys quantified from the soluble protein. […] In contrast, the number of Cys per monomer obtained for omeprazole, BHO2 and BHO3 treatment was respectively 2.02 ± 0.02, 1.9 ± 0.2 and 2.15 ± 015. […] An aliquot of each derivatized enzyme was withdrawn and incubated with 5 mM DTT during 15 minutes; then, the samples were filtered and the free Cys was again quantified. The number of Cys/monomer was 2.2 ± 0.2, 2,1 ± 0.22 and 1.8 ± 0.18 for omeprazole, BHO2 and BHO3, respectively.
To carry out the experiments, the derivatized GlTIM with different molecules was incubated with 2 mM DTT and then filtered through 3 mL Sephadex G-25 column to remove the unreacted compounds. All spectroscopic assays were carried out at protein concentration of 0.2 mg/mL (7 µM). Cysteine quantification was performed spectrophotometrically using de Ellman’s reagent as described before, [36]. Briefly, 200 µg of GlTIM were suspended in TE buffer supplemented with 5% SDS; after an incubation of 10 min at 25 °C, the enzyme was added to a cuvette containing 500 µL of TE buffer supplemented with 5% SDS and 1 mM DTNB. Cysteine quantification was done following the increase of absorbance at 412 nm, using an ε M ^−1 cm ^−1 of 13,600[36].

[5] = system: G. lamblia WB trophozoites; test: Susceptibility assay of Giardia trophozoites; format: cell-based, Giardia lamblia; settings: Giardia duodenalis; 48 hours at 37 °C with compound, then 48 hours in compound-free medium; ± standard error
Method: The anti-giardiasic ability of compounds was tested in an in vitro. […] Thus, for BHO2 and BHO3 the values (130 and 122 µM, respectively) were around of the half of that obtained for omeprazole (300 µM).
Figure 6 Anti-giardiasic activity of Compounds in trophozoites. Cultures of trophozoites (100,000 trophozoites/mL) were incubated during 48 hours at 37 °C with increasing concentrations of compounds. Afterward, samples were withdrawn and resuspended in a medium free of compounds. The samples were incubated for other 48 hours/37 °C and thereafter, the viability of trophozoites were quantified. The values represent ± standard deviation from three independent experiments.
We used the G. lamblia WB reference isolate in all experiments. The splitting method used to our susceptibility assays is described below. Cultures with 100,000 trophozoites/mL on TYI-S-33 medium were incubated during 48 hours at 37 °C supplemented with increasing concentrations of compounds ranging from 32.5 to 500 µM. Afterward, samples were chilled in ice for 15 minutes, washed with medium and resuspended in 50 µL of medium free of compounds and antibiotic. Then, trophozoites were diluted in 1 mL of medium free of compounds and antibiotic, incubated for 48 hours at 37 °C and then, the viability of trophozoites was manually quantified by using a Neubauer chamber; the viability percent and IC50 was subsequently calculated.

mutant GlTIM C222A = molecular target: T3, mutant GlTIM C222A (Giardia intestinalis, UniProt P36186, C202A/C222A); test: Inactivation assay of mutant GlTIM C222A; format: biochemical, Giardia lamblia
T3 construct: made in house
T3 sequence (P36186 whole entry C202A/C222A): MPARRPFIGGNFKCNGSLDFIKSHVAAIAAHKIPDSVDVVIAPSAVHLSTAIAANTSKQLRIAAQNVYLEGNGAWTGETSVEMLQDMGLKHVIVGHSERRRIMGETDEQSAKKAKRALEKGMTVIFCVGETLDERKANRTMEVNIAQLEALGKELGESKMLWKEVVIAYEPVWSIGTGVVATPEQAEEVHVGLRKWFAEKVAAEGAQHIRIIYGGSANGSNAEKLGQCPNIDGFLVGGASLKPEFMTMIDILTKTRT
Method: as §1, with “For all assays, the enzymes were freshly prepared with no more of two weeks of storage.” left out
(§5) TIM activity was determined in a Cary50 spectrophotometer (Varian) at 25 °C using coupling assay following the conversion of D-glyceraldehyde 3-phosphate to dihydroxyacetone phosphate as described before. […]
as §2, with “Then, the k 1 values were re-plotted against the employed concentrations of each compound; the second-order rate constant value of inactivation was obtained from the slope of these plots.” left out

human TIM (HsTIM) = molecular target: T4, human TIM (HsTIM) (Homo sapiens, UniProt P60174); test: Inactivation assay of human TIM; format: biochemical
T4 construct: made in house
T4 sequence (P60174 whole entry): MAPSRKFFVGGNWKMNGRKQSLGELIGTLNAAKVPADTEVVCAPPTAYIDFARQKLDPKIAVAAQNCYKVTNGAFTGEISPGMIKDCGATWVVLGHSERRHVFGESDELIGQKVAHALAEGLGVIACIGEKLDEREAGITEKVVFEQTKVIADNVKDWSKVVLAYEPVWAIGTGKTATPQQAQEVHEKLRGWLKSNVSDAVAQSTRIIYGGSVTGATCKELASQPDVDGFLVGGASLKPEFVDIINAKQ
Method: as §1, with “For all assays, the enzymes were freshly prepared with no more of two weeks of storage.” left out
as §5
as §2, with “Then, the k 1 values were re-plotted against the employed concentrations of each compound; the second-order rate constant value of inactivation was obtained from the slope of these plots.” left out

[6] = system: gingival human fibroblasts; test: Cytotoxicity assay (MTT) in human fibroblasts; format: cell-based; settings: 24 hours, 95% confidence limits in square brackets
Method: as §3, §4

[7] = molecular target: T1, triosephosphate isomerase of G. lamblia (GlTIM); settings: cited from earlier work

For COc1c(C)cnc(C[S+]([O-])c2nc3ccc(C)cc3[nH]2)c1C (centres unmarked) [BHO2, 2-[(4-methoxy-3,5-dimethylpyridin-2-yl)methylsulfinyl]-5(6)-methyl-1H-benzimidazole], the “Solubility respect to omeprazole” value [1] was “improved its solubility”, the IC50 [2] was 64 µM and the “Increase of reactivity against GlTIM respect to omeprazole” value [2] was “three-fold”. For the same compound, the “Reversibility of GlTIM inhibition” value [2] was “irreversibly”, the kinact/KI [2] was 1.6 ± 0.1 M⁻¹ s⁻¹ and the “CC50 mammal cells relative to IC50 for trophozoites” value (VERO cells) was 38- to 61 fold. The CC50 at 24 h [3] was 8000 µM, the melting point was 221.4 to 222.8 °C and the CC50 at 24 h [4] was 5000 µM. The “Number of free Cys per monomer after treatment” value (GlTIM) was 1.9 ± 0.2 Cys/monomer and the IC50 [5] was 130 µM.

In the case of COc1ccc2[nH]c([S+]([O-])Cc3ncc(C)c(OC)c3C)nc2c1 (centres unmarked) [Omeprazole, omeprazole, reference compound], the “Effect on activity of mutant GlTIM C222A (in words)” value (mutant GlTIM C222A) is reported as “affects marginally”, the IC50 [2] is reported as 225 µM and the “Inactivation of GlTIM (in words)” value [2] is reported as “inactivated the GlTIM completely”. The kinact/KI [2] was 0.78 ± 0.016 M⁻¹ s⁻¹, the “CC50 VERO cells relative to trophozoites cytotoxicity” value (VERO cells) was 46 fold and the CC50 at 24 h [3] was 14000 µM. The “Inactivation of HsTIM (in words)” value (human TIM (HsTIM)) was “unaffected”, the “CC50 Human Fibroblasts” value [6] was “No effect” and the “CC50 Human Fibroblasts” value ([6]; listed as omeprazole) was “did not show cytotoxic effect”. The “Number of free Cys per monomer after treatment” value (GlTIM) was 2.02 ± 0.02 Cys/monomer, the “Number of free Cys per monomer after treatment and then DTT” value (GlTIM) was 2.2 ± 0.2 Cys/monomer and the IC50 [5] was 300 ± 10.2 µM. The “Reversibility of GlTIM inhibition, reported before” value [7] was “irreversible” and the “Second-order rate constant of inactivation, previously reported” value [7] was 0.6 M⁻¹ s⁻¹.

In the case of Cc1ccc2nc([S+]([O-])Cc3nccc(OCC(F)(F)F)c3C)[nH]c2c1 (centres unmarked) [BHO3, 5(6)-Methyl-2-({[3-methyl-4-(2,2,2-trifluoroethoxy)pyridin-2-yl]methyl}sulfinyl]-1H-benzimidazole], the IC50 [2] is reported as 100 µM, the “Increase of reactivity against GlTIM respect to omeprazole” value [2] is reported as “two-fold” and the “Reversibility of GlTIM inhibition” value [2] is reported as “irreversibly”. The kinact/KI [2] was 1.2 ± 0.06 M⁻¹ s⁻¹, the “CC50 mammal cells relative to IC50 for trophozoites” value (VERO cells) was 38- to 61 fold and the CC50 at 24 h [3] was 4700 µM. The melting point was 228.5 to 229.8 °C, the CC50 at 24 h [4] was 5500 µM and the “Number of free Cys per monomer after treatment” value (GlTIM) was 2.15 ± 015 Cys/monomer. The “Number of free Cys per monomer after treatment and then DTT” value (GlTIM) was 1.8 ± 0.18 Cys/monomer and the IC50 [5] was 122 ± 1.7 µM.

With Cc1ccc2nc([S+]([O-])Cc3ccccn3)[nH]c2c1 (centres unmarked) [BHO1, 5(6)-methyl-2-[(pyridin-2-ylmethyl)sulfinyl]−1H-benzimidazole] the “Inactivation of GlTIM (in words)” value [2] was “inactivated scarcely” and the melting point was 121.3 to 122.9 °C.

Source: paper PMC5552691, “Novel giardicidal compounds bearing proton pump inhibitor scaffold proceeding through triosephosphate isomerase inactivation” (Scientific Reports, 2017)
